In the supplement of paper PMC10307832:

Assays:
Test in all cases: relative viability (nuclei count vs DMSO), 5 days (fraction); higher = more cells survive
A-427 = test system: A-427
How it was run: (§1)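 Relative viability is defined as nuclei in treated wells over nuclei in vehicle wells. Duplicate plates were run and medians reported. Lung cancer cell lines in 1536-well plates were dosed by pin tool one day after seeding, with one drug or with a fixed anchor-drug dose plus five library-drug doses (not always all listed) in √10 steps, and nuclei were counted after 5 days.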

COR-L 105 = test system: COR-L 105
How it was run: as §1

EPLC-272H = test system: EPLC-272H
How it was run: as §1

HCC-15 = test system: HCC-15
How it was run: as §1

HCC-44 = test system: HCC-44
How it was run: as §1

LC-2-ad = test system: LC-2-ad
How it was run: as §1

LCLC-97TM1 = test system: LCLC-97TM1
How it was run: as §1

NCI-H1395 = test system: NCI-H1395
How it was run: as §1

NCI-H1734 = test system: NCI-H1734
How it was run: as §1

NCI-H1792 = test system: NCI-H1792
How it was run: as §1

NCI-H1915 = test system: NCI-H1915
How it was run: as §1

NCI-H1975 = test system: NCI-H1975
How it was run: as §1

NCI-H2023 = test system: NCI-H2023
How it was run: as §1

NCI-H2342 = test system: NCI-H2342
How it was run: as §1

NCI-H2347 = test system: NCI-H2347
How it was run: as §1

NCI-H2405 = test system: NCI-H2405
How it was run: as §1

NCI-H520 = test system: NCI-H520
How it was run: as §1

NCI-H838 = test system: NCI-H838
How it was run: as §1

SW 1573 = test system: SW 1573
How it was run: as §1

SW 900 = test system: SW 900
How it was run: as §1

UMC-11 = test system: UMC-11
How it was run: as §1

Cc1cn(-c2cc(NC(=O)c3ccc(C)c(Nc4nccc(-c5cccnc5)n4)c3)cc(C(F)(F)F)c2)cn1 [Nilotinib] + Nc1ncn([C@H]2C[C@H](O)[C@@H](CO)O2)c(=O)n1 [Decitabine] (partner 2 µM) showed a relative viability (A-427; first compound 0.001 µM) of 0.586, a relative viability (A-427; first compound 0.003162 µM) of 0.565 and a relative viability (A-427; first compound 0.01 µM) of 0.658. For the same molecule, the relative viability (A-427; first compound 0.03162 µM) was 0.663, the relative viability (A-427; first compound 0.1 µM) was 0.695 and the relative viability (COR-L 105; first compound 0.001 µM) was 0.735. For the same molecule, the relative viability (COR-L 105; first compound 0.003162 µM) was 0.734, the relative viability (COR-L 105; first compound 0.01 µM) was 0.743 and the relative viability (COR-L 105; first compound 0.03162 µM) was 0.732. For the same molecule, the relative viability (COR-L 105; first compound 0.1 µM) was 0.751, the relative viability (EPLC-272H; first compound 0.001 µM) was 0.294 and the relative viability (EPLC-272H; first compound 0.003162 µM) was 0.368. The relative viability (EPLC-272H; first compound 0.01 µM) was 0.436, the relative viability (EPLC-272H; first compound 0.03162 µM) was 0.341 and the relative viability (EPLC-272H; first compound 0.1 µM) was 0.338. It also gave a relative viability (HCC-15; first compound 0.001 µM) of 0.569, a relative viability (HCC-15; first compound 0.003162 µM) of 0.77 and a relative viability (HCC-15; first compound 0.01 µM) of 0.718. It also gave a relative viability (HCC-15; first compound 0.03162 µM) of 0.481, a relative viability (HCC-15; first compound 0.1 µM) of 0.309 and a relative viability (HCC-44; first compound 0.001 µM) of 0.922. For the same molecule, the relative viability (HCC-44; first compound 0.003162 µM) was 0.945, the relative viability (HCC-44; first compound 0.01 µM) was 0.969 and the relative viability (HCC-44; first compound 0.1 µM) was 0.918. The relative viability (LC-2-ad; first compound 0.001 µM) was 0.8, the relative viability (LC-2-ad; first compound 0.003162 µM) was 0.982 and the relative viability (LC-2-ad; first compound 0.01 µM) was 0.796. For the same molecule, the relative viability (LC-2-ad; first compound 0.03162 µM) was 0.859, the relative viability (LC-2-ad; first compound 0.1 µM) was 0.803 and the relative viability (LCLC-97TM1; first compound 0.001 µM) was 0.201. For the same molecule, the relative viability (LCLC-97TM1; first compound 0.003162 µM) was 0.283, the relative viability (LCLC-97TM1; first compound 0.01 µM) was 0.279 and the relative viability (LCLC-97TM1; first compound 0.03162 µM) was 0.321. It also gave a relative viability (NCI-H1395; first compound 0.001 µM) of 0.745, a relative viability (NCI-H1395; first compound 0.01 µM) of 0.798 and a relative viability (NCI-H1395; first compound 0.03162 µM) of 0.707. For the same molecule, the relative viability (NCI-H1395; first compound 0.1 µM) was 0.891, the relative viability (NCI-H1734; first compound 0.001 µM) was 0.526 and the relative viability (NCI-H1734; first compound 0.003162 µM) was 0.605. It also gave a relative viability (NCI-H1734; first compound 0.01 µM) of 0.629, a relative viability (NCI-H1734; first compound 0.03162 µM) of 0.576 and a relative viability (NCI-H1734; first compound 0.1 µM) of 0.455. For the same molecule, the relative viability (NCI-H1792; first compound 0.001 µM) was 0.463, the relative viability (NCI-H1792; first compound 0.003162 µM) was 0.691 and the relative viability (NCI-H1792; first compound 0.01 µM) was 0.66. The relative viability (NCI-H1792; first compound 0.03162 µM) was 0.403, the relative viability (NCI-H1792; first compound 0.1 µM) was 0.633 and the relative viability (NCI-H1915; first compound 0.001 µM) was 0.28. For the same molecule, the relative viability (NCI-H1915; first compound 0.003162 µM) was 0.271, the relative viability (NCI-H1915; first compound 0.01 µM) was 0.255 and the relative viability (NCI-H1915; first compound 0.03162 µM) was 0.318. The relative viability (NCI-H1915; first compound 0.1 µM) was 0.325, the relative viability (NCI-H1975; first compound 0.001 µM) was 0.339 and the relative viability (NCI-H1975; first compound 0.003162 µM) was 0.393. For the same molecule, the relative viability (NCI-H1975; first compound 0.01 µM) was 0.383, the relative viability (NCI-H1975; first compound 0.03162 µM) was 0.389 and the relative viability (NCI-H1975; first compound 0.1 µM) was 0.275. It also gave a relative viability (NCI-H2023; first compound 0.001 µM) of 0.245, a relative viability (NCI-H2023; first compound 0.003162 µM) of 0.296 and a relative viability (NCI-H2023; first compound 0.01 µM) of 0.334. It also gave a relative viability (NCI-H2023; first compound 0.03162 µM) of 0.271, a relative viability (NCI-H2023; first compound 0.1 µM) of 0.298 and a relative viability (NCI-H2342; first compound 0.001 µM) of 0.704. It also gave a relative viability (NCI-H2342; first compound 0.003162 µM) of 0.735, a relative viability (NCI-H2342; first compound 0.01 µM) of 0.666 and a relative viability (NCI-H2342; first compound 0.03162 µM) of 0.591. The relative viability (NCI-H2342; first compound 0.1 µM) was 0.754, the relative viability (NCI-H2347; first compound 0.001 µM) was 0.637 and the relative viability (NCI-H2347; first compound 0.003162 µM) was 0.694. It also gave a relative viability (NCI-H2347; first compound 0.01 µM) of 0.718, a relative viability (NCI-H2347; first compound 0.03162 µM) of 0.626 and a relative viability (NCI-H2347; first compound 0.1 µM) of 0.601. For the same molecule, the relative viability (NCI-H2405; first compound 0.001 µM) was 0.724, the relative viability (NCI-H2405; first compound 0.003162 µM) was 0.815 and the relative viability (NCI-H2405; first compound 0.01 µM) was 0.798. The relative viability (NCI-H2405; first compound 0.03162 µM) was 0.65, the relative viability (NCI-H2405; first compound 0.1 µM) was 0.509 and the relative viability (NCI-H520; first compound 0.001 µM) was 0.473. For the same molecule, the relative viability (NCI-H520; first compound 0.003162 µM) was 0.653, the relative viability (NCI-H520; first compound 0.01 µM) was 0.613 and the relative viability (NCI-H520; first compound 0.03162 µM) was 0.564. For the same molecule, the relative viability (NCI-H520; first compound 0.1 µM) was 0.649, the relative viability (NCI-H838; first compound 0.001 µM) was 0.44 and the relative viability (NCI-H838; first compound 0.003162 µM) was 0.532. For the same molecule, the relative viability (NCI-H838; first compound 0.01 µM) was 0.522, the relative viability (NCI-H838; first compound 0.03162 µM) was 0.489 and the relative viability (NCI-H838; first compound 0.1 µM) was 0.637. It also gave a relative viability (SW 1573; first compound 0.001 µM) of 0.455, a relative viability (SW 1573; first compound 0.003162 µM) of 0.622 and a relative viability (SW 1573; first compound 0.01 µM) of 0.924. For the same molecule, the relative viability (SW 1573; first compound 0.03162 µM) was 0.533, the relative viability (SW 1573; first compound 0.1 µM) was 0.297 and the relative viability (SW 900; first compound 0.003162 µM) was 0.579. The relative viability (SW 900; first compound 0.01 µM) was 0.724, the relative viability (SW 900; first compound 0.03162 µM) was 0.743 and the relative viability (SW 900; first compound 0.1 µM) was 0.577. For the same molecule, the relative viability (UMC-11; first compound 0.001 µM) was 0.607, the relative viability (UMC-11; first compound 0.003162 µM) was 0.591 and the relative viability (UMC-11; first compound 0.01 µM) was 0.566. It also gave a relative viability (UMC-11; first compound 0.03162 µM) of 0.551 and a relative viability (UMC-11; first compound 0.1 µM) of 0.622.
